Measurements from ChEMBL document CHEMBL1201862, “PubChem BioAssay data set” (2004).
Activity calls are given as the source filed them.

Key:
[1] = target: ALK tyrosine kinase receptor (Homo sapiens, UniProt Q9UM73); type: functional;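 note: ALK tested as one member of a kinase panel screen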
[2] = target: Cyclin-dependent kinase 19 (Homo sapiens, UniProt Q9BWU1); assay: Navigating the Kinome. Panel member name: CDC2L6; type: functional
[3] = target: Heat shock protein HSP 90-alpha (Homo sapiens, UniProt P07900); type: functional, organism-based
[4] = target: T1, High affinity choline transporter 1 (Homo sapiens, UniProt Q9GZV3); assay: CHT inhibitors, dose response, cell-based, 5-point CRC, membrane potential dye (AID 504840); type: functional
T1 sequence (Q9GZV3 whole entry): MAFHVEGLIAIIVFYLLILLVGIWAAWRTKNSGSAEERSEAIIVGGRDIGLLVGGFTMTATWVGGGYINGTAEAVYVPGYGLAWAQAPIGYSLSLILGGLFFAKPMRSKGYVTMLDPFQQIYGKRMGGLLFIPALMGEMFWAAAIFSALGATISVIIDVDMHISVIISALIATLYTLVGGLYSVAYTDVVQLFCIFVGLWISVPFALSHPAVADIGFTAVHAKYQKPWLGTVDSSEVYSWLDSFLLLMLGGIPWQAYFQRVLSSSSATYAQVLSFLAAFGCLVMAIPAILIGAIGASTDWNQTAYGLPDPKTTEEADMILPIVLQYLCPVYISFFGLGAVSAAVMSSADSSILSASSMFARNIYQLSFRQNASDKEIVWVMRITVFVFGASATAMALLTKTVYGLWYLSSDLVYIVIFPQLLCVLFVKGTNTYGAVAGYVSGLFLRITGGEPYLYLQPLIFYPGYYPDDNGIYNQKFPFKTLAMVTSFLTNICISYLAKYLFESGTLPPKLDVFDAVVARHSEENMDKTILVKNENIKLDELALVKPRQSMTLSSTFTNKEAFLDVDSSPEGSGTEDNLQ

H9c2 = assay: cells; type: functional, cell-based; conditions: Rattus norvegicus, H9c2, Myocardium;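 note: confirmatory concentration-response retest of ultra-high-throughput screening hits for modulation of myocardial damage; cell death induced by hydrogen peroxide oxidative stress; compound pretreatment for 60 min then peroxide exposure for 2 h; potency is for protecting the cells against peroxide damage rather than for killing them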
[5] = target: T1, High affinity choline transporter 1; assay: CHT inhibitors, dose response, cell-based, 10-point CRC, membrane potential dye (AID 588401); type: functional;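 note: membrane potential dye fluorescence of choline-evoked depolarization via CHT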
[6] = target: Serine/threonine-protein kinase D3 (Homo sapiens, UniProt O94806); type: functional;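 note: determined within a kinase panel screen, with PRKCN as the panel member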
Chain of Serine/threonine-protein kinase D3 (O94806 whole entry): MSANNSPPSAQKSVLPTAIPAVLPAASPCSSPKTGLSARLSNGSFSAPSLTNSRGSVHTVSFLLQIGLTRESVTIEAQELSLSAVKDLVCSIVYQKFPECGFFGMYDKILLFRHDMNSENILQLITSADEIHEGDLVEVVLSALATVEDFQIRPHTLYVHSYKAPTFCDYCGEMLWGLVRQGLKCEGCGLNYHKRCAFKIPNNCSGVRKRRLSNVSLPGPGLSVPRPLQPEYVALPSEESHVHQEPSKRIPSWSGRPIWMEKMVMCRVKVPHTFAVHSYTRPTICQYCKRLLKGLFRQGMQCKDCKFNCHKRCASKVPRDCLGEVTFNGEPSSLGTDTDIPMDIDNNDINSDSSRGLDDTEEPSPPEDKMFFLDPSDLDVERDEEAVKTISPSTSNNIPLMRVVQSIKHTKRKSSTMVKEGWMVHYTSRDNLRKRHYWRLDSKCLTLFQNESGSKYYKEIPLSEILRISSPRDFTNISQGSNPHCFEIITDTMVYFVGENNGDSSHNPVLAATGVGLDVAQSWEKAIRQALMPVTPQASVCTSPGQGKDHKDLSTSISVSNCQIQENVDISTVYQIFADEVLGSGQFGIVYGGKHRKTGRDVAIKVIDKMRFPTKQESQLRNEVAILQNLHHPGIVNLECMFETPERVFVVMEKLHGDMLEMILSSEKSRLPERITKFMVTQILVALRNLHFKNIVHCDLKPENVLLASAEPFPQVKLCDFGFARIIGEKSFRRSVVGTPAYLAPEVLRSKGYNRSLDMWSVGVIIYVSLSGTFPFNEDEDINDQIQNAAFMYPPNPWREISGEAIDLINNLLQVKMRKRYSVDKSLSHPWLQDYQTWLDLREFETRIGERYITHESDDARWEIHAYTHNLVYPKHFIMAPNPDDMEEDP

[7] = target: Tyrosine-protein kinase Lck (Homo sapiens, UniProt P06239); type: functional;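 note: lck was assayed as one member of a kinase panel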
[8] = target: Death-associated protein kinase 3 (Homo sapiens, UniProt O43293); type: functional;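 note: measured as one member of a kinome-wide profiling panel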
Activin receptor type-1 = Activin receptor type-1 (Homo sapiens, UniProt Q04771); assay: Navigating the Kinome. Panel member name: ACVR1; type: functional
Chain of Activin receptor type-1 (Q04771 whole entry): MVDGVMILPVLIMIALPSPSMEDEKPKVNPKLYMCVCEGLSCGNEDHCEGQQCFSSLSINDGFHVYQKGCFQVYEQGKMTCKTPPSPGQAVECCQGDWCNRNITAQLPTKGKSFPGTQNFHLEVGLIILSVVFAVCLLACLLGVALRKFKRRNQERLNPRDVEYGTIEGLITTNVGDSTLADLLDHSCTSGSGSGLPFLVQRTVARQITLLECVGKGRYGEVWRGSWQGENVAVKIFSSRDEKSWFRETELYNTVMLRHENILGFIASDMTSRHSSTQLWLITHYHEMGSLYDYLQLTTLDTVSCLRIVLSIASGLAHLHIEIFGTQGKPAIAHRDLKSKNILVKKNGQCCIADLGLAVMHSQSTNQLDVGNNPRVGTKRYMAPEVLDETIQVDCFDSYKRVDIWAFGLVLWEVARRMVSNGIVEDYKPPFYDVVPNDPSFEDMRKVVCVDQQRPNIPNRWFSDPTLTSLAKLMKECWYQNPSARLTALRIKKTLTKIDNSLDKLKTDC

[9] = target: Mitogen-activated protein kinase 8 (Homo sapiens, UniProt P45983); type: functional;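 note: value comes from one member of a kinome-wide kinase profiling panel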
[10] = target: Serine/threonine-protein kinase pim-1 (Homo sapiens, UniProt P11309); type: functional
[11] = target: Tyrosine-protein kinase BTK (Homo sapiens, UniProt Q06187); type: functional
[12] = target: Serine/threonine-protein kinase PAK 4 (Homo sapiens, UniProt O96013); type: functional;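 note: value obtained within a kinome profiling panel in which PAK4 was one of the panel members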
[13] = target: Fibroblast growth factor receptor 1 (Homo sapiens, UniProt P11362); type: functional
[14] = target: Casein kinase I isoform alpha (Homo sapiens, UniProt P48729); type: functional
[15] = target: Tyrosine-protein kinase JAK3 (Homo sapiens, UniProt P52333); type: functional
[16] = target: Serine/threonine-protein kinase TAO1 (Homo sapiens, UniProt Q7L7X3); type: functional
[17] = target: Glycogen synthase kinase-3 alpha (Homo sapiens, UniProt P49840); type: functional;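 note: GSK3A result taken from a broad kinome-wide kinase panel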
[18] = target: Mitogen-activated protein kinase kinase kinase kinase 2 (Homo sapiens, UniProt Q12851); type: functional;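 note: measured as one member of a kinome-wide kinase panel, with MAP4K2 as the panel entry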
[19] = target: Hepatocyte growth factor receptor (Homo sapiens, UniProt P08581); type: functional;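 note: kinase panel profiling across the kinome, with MET as the panel member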
[20] = target: Serine/threonine-protein kinase Chk1 (Homo sapiens, UniProt O14757); type: functional;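 note: measured as one member of a kinome-wide kinase profiling panel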
Chain of Serine/threonine-protein kinase Chk1 (O14757 whole entry): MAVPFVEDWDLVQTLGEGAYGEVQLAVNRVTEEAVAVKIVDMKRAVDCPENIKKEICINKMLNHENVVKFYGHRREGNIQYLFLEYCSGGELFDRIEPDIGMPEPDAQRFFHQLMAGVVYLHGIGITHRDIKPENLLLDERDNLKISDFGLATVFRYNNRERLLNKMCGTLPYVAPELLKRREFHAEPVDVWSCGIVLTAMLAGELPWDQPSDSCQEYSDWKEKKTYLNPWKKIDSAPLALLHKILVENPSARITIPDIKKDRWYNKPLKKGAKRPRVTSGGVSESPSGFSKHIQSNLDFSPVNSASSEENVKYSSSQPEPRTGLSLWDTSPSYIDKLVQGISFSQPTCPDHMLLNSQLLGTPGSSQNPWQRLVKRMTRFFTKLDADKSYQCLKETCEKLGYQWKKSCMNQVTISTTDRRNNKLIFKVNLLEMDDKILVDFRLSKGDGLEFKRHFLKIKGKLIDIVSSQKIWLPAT

[21] = target: G protein-coupled receptor kinase 5 (Homo sapiens, UniProt P34947); assay: Navigating the Kinome. Panel member name: GPRK5; type: functional
[22] = target: Dual specificity tyrosine-phosphorylation-regulated kinase 1B (Homo sapiens, UniProt Q9Y463); assay: Navigating the Kinome. Panel member name: DYRK1B; type: functional
[23] = target: cAMP-dependent protein kinase catalytic subunit PRKX (Homo sapiens, UniProt P51817); type: functional
Chain of cAMP-dependent protein kinase catalytic subunit PRKX (P51817 whole entry): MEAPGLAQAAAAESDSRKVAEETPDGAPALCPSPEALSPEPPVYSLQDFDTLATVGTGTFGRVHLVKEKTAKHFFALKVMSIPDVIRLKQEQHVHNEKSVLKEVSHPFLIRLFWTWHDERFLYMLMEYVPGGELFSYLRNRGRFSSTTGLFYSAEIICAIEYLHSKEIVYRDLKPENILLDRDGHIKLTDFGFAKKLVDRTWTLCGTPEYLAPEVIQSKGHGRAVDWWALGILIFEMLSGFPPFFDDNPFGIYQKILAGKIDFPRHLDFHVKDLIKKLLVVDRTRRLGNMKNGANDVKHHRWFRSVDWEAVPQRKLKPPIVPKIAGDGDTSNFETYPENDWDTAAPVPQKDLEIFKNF

[24] = target: Platelet-derived growth factor receptor alpha (Homo sapiens, UniProt P16234); assay: Navigating the Kinome. Panel member name: PDGFRA; type: functional
Aurora kinase B = Aurora kinase B (Homo sapiens, UniProt Q96GD4); type: functional
[25] = target: Tyrosine-protein kinase Fyn (Homo sapiens, UniProt P06241); type: functional
[26] = target: Serine/threonine-protein kinase Nek2 (Homo sapiens, UniProt P51955); type: functional
[27] = target: Cyclin-dependent kinase 8 (Homo sapiens, UniProt P49336); assay: Navigating the Kinome. Panel member name: CDK8; type: functional
[28] = target: Cyclin-dependent kinase 7 (Homo sapiens, UniProt P50613); type: functional;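 note: value comes from a kinome-wide kinase profiling panel in which CDK7 is one member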
[29] = target: Vascular endothelial growth factor receptor 1 (Homo sapiens, UniProt P17948); type: functional;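 note: measured within a kinome-wide profiling panel, FLT1 as the panel member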
[30] = target: Dual specificity protein kinase CLK4 (Homo sapiens, UniProt Q9HAZ1); type: functional
[31] = target: Mitogen-activated protein kinase kinase kinase kinase 4 (Homo sapiens, UniProt O95819); type: functional
Chain of Mitogen-activated protein kinase kinase kinase kinase 4 (O95819 whole entry): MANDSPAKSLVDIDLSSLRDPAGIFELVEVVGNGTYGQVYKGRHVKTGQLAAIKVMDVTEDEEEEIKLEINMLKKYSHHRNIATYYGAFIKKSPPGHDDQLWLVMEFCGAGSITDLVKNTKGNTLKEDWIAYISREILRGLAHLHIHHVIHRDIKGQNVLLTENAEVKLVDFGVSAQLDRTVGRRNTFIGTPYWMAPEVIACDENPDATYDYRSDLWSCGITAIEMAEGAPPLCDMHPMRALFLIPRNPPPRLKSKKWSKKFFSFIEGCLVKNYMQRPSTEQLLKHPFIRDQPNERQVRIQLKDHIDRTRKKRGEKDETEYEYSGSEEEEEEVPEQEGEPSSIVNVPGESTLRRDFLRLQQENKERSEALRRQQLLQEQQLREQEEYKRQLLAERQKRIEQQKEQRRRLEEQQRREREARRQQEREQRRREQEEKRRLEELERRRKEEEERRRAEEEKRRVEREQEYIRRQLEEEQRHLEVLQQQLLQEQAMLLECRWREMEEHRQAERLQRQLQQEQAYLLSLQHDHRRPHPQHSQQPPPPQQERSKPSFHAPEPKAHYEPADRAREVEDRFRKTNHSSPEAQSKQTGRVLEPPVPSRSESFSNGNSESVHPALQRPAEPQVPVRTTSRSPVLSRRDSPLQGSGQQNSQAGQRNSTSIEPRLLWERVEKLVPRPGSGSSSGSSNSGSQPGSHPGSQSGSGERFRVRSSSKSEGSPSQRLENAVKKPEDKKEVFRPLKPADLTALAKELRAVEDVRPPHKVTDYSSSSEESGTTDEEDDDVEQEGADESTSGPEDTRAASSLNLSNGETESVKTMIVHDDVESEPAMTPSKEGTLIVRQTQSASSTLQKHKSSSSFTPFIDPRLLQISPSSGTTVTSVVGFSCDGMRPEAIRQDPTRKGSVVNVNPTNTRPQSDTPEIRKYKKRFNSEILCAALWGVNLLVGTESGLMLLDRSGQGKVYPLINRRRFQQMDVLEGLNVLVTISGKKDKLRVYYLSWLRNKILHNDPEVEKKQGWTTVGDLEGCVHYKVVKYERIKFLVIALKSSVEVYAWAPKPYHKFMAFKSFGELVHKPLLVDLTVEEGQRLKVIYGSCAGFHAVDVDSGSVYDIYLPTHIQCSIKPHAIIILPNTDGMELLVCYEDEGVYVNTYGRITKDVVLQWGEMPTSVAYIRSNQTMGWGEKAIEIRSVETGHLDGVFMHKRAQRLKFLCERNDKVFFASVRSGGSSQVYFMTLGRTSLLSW

[32] = target: Dual specificity tyrosine-phosphorylation-regulated kinase 1A (Homo sapiens, UniProt Q13627); type: functional;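 note: measured against DYRK1A as one member of a broad kinome profiling panel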
[33] = target: Calcium/calmodulin-dependent protein kinase type II subunit alpha (Homo sapiens, UniProt Q9UQM7); assay: Navigating the Kinome. Panel member name: CAMK2A; type: functional
[34] = target: Leukocyte tyrosine kinase receptor (Homo sapiens, UniProt P29376); assay: Navigating the Kinome. Panel member name: LTK; type: functional
[35] = target: Mitogen-activated protein kinase 14 (Homo sapiens, UniProt Q16539); type: functional;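 note: part of a kinome-wide panel, MAPK14 entry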
[36] = target: T2, Apoptotic protease-activating factor 1 (Homo sapiens, UniProt O14727); assay: SAR analysis of small molecule inhibitors of Apaf-1 in a Fluorescent assay.; type: functional; conditions: read-out: IC50_Mean
T2 sequence (O14727 whole entry): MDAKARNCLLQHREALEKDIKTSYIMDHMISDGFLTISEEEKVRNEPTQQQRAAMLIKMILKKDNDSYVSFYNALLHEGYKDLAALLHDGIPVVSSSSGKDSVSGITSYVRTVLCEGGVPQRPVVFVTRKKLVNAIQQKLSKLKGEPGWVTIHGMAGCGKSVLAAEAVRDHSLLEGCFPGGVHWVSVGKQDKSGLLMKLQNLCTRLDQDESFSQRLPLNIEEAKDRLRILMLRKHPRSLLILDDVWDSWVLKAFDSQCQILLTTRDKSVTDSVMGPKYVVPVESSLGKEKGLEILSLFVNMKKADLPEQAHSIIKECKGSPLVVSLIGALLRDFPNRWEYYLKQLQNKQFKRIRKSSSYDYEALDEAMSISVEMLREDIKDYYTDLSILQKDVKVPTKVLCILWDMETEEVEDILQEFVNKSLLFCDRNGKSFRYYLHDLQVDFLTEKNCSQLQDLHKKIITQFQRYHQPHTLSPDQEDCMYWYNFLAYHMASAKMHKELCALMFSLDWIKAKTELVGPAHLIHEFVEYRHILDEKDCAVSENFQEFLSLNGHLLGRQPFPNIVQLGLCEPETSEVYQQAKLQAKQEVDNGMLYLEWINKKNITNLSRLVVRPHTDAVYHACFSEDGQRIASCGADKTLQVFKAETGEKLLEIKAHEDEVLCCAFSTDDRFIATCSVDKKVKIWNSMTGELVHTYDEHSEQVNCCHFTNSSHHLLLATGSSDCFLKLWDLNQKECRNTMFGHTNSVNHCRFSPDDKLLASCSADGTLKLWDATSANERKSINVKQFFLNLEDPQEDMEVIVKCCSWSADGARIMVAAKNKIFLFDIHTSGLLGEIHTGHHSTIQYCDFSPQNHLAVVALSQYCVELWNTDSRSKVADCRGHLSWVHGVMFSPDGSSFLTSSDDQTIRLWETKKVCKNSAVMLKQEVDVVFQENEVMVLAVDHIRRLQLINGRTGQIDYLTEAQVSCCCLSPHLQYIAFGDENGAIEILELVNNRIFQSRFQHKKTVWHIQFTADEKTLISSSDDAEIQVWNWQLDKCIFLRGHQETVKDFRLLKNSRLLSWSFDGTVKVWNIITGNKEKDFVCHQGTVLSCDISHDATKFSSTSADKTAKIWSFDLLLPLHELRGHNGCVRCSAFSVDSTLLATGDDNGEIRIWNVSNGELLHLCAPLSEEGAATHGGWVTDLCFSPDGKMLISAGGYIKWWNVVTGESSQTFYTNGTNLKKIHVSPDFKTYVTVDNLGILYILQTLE

[37] = target: Botulinum neurotoxin type A (Clostridium botulinum (strain Hall / ATCC 3502 / NCTC 13319 / Type A), UniProt P0DPI1); assay: High-throughput multiplex microsphere dose response for inhibitors of toxin protease, specifically Botulinum neurotoxin light chain A protease, compounds from Cherry Pick 02.; type: functional; conditions: read-out: EC50_MICROM
[38] = target: Botulinum neurotoxin type F (Clostridium botulinum, UniProt P30996); assay: High-throughput multiplex microsphere dose response for inhibitors of toxin protease, specifically Botulinum neurotoxin light chain F protease, compounds from Cherry Pick 02.; type: functional; conditions: read-out: EC50_MICROM

Chain of ALK tyrosine kinase receptor (Q9UM73 whole entry): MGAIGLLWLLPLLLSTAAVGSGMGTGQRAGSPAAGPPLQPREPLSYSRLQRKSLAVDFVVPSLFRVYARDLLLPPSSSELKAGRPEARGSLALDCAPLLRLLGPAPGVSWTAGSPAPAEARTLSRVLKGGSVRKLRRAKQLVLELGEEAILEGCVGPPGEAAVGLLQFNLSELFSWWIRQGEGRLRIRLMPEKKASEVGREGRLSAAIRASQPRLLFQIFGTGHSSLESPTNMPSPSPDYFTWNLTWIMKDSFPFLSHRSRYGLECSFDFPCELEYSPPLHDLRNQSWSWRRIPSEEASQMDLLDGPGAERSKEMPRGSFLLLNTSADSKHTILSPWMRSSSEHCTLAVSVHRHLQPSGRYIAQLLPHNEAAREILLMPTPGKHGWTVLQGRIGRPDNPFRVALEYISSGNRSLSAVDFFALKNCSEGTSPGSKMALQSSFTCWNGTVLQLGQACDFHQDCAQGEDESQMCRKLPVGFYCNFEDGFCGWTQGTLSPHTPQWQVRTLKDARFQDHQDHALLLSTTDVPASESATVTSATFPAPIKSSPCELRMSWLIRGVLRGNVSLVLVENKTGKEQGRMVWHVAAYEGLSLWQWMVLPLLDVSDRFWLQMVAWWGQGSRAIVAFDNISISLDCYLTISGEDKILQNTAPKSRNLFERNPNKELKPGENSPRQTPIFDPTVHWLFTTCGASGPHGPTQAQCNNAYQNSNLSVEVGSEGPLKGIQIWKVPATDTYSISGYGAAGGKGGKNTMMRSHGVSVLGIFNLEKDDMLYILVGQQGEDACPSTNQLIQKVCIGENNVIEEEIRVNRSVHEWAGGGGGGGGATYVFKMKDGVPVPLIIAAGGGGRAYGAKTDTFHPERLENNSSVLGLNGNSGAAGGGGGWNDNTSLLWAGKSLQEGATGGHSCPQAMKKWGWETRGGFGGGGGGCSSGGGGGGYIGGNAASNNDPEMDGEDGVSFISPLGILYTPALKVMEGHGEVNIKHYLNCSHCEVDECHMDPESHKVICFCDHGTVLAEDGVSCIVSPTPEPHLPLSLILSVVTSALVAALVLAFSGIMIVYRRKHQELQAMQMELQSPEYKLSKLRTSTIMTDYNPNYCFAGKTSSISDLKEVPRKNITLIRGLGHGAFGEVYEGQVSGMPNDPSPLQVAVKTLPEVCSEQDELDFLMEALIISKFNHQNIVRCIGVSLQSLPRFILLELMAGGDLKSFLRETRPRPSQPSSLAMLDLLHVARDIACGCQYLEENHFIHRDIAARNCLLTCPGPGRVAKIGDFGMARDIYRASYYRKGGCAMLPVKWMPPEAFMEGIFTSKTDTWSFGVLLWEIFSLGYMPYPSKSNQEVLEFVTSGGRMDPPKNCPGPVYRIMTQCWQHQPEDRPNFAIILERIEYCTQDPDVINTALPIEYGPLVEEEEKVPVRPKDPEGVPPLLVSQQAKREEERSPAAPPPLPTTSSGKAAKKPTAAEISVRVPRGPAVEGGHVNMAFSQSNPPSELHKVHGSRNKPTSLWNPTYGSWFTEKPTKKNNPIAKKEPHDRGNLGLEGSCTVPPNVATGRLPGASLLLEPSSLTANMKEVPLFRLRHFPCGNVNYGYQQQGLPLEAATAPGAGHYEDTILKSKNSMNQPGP

With `Cn1cc(Nc2ncc(Br)c(Nc3ccccc3S(C)(=O)=O)n2)cn1` the Ki [1] was 2.51 µM (active) and the Ki [2] was > 100 µM (inactive).

With `Oc1c(Br)cc(Br)cc1/C=N/Cc1ccccc1` the AC50 [3] was 5.31 µM (active), the IC50 [4] was 9.73 µM (active) and the IC50 (H9c2) was > 79 µM (inactive). The IC50 [5] was 3.16 µM (active).

`CCN1c2cc(N)ccc2-c2ccc(N)cc2C1(O)c1ccccc1` (configuration not stated) was tested, and the Ki [1] was > 6.31 µM (inactive), the Ki [6] was 3.98 µM (active) and the Ki [7] was > 6.31 µM (inactive). The Ki [8] was > 5.01 µM (inactive), the Ki (Activin receptor type-1) was > 3.98 µM (inactive) and the Ki [9] was > 5.01 µM (inactive). For the same molecule, the Ki [10] was > 6.31 µM (inactive), the Ki [11] was 3.98 µM (active) and the Ki [12] was > 5.01 µM (inactive). For the same molecule, the Ki [13] was > 3.98 µM (inactive), the Ki [14] was > 3.98 µM (inactive) and the Ki [15] was 3.16 µM (active). For the same molecule, the Ki [16] was 3.16 µM (active), the Ki [17] was > 3.98 µM (inactive) and the Ki [18] was 2 µM (active). The Ki [19] was 2.51 µM (active), the Ki [20] was 2 µM (active) and the Ki [21] was > 3.98 µM (inactive). For the same molecule, the Ki [22] was 2.51 µM (active), the Ki [23] was 2 µM (active) and the Ki [24] was 1.26 µM (active). The Ki (Aurora kinase B) was > 3.98 µM (inactive), the Ki [25] was > 6.31 µM (inactive) and the Ki [26] was 2 µM (active). The Ki [27] was > 3.98 µM (inactive), the Ki [28] was > 3.98 µM (inactive) and the Ki [29] was 3.16 µM (active). The Ki [30] was 0.398 µM (active), the Ki [31] was 3.16 µM (active) and the Ki [32] was 0.794 µM (active). The Ki [33] was > 3.98 µM (inactive), the Ki [34] was 2 µM (active) and the Ki [35] was > 3.98 µM (inactive).

For `Cc1cc(NC(=O)C2CC2)sc1C(=O)Nc1ccc2[nH]c(-c3cc(F)ccc3F)nc2c1`, the IC50 [36] was 42.4 µM (active).

In the case of `O=C(Cc1ccccc1)c1ccccn1`, the EC50 [37] is reported as 8.6 µM (active) and the EC50 [38] is reported as > 20 µM (inactive).
